Earlier results as cited in patent US20100129431A1, “IDEBENONE COMPOSITION FOR THE TREATMENT OF NEUROLOGICAL DISORDERS” (AlphaRx Inc., priority 2008, published 2010).

Key:
[1] = system: rats; settings: cerebral embolization, cerebral ischemia or basal forebrain lesions
[2] = system: microsomal lipid peroxidation; settings: induced by ADP-iron complexes or organic hydroperoxides
[3] = clinical tests
[4] = oral
[5] = system: free radical species; settings: cell cultures
[6] = system: cultured cortical neurons; settings: also when applied 30 minutes after the NMDA pulse
[7] = system: Friedreich's Ataxia patients
[8] = system: patients with cerebrovascular disease; settings: 90 mg daily, nine patients

water solubility: low | microsomal lipid peroxidation [2]: inhibit microsomal lipid peroxidation | bioavailability [4]: relatively, high
Structure (SMILES): COC1=C(OC)C(=O)C(CCCCCCCCCCO)=C(C)C1=O [Idebenone, 2,3-dimethoxy-5-methyl-6-(10-hydroxydecyl)-1,4-benzoquinone]
learning and memory disturbances [1]: ameliorates learning and memory disturbances | psychological deficits (memory retention, disorientation) [3]: effective in reducing psychological deficits | free radical scavenging [5]: scavenged a variety of free radical species | protection against necrotic degeneration [6]: protects cultured cortical neurons against necrotic degeneration | left ventricular enlargement ([7]; 5 mg/kg daily for 4-9 months, three patients): reduction of left ventricular enlargement | marker of oxidative DNA damage ([7]; oral 5 mg/kg daily for 8 weeks): significantly decreased | EEG and clinical symptoms [8]: improvements in EEG and clinical symptoms
